Assay results from publication PMC10313921, “A living ex vivo platform for functional, personalized brain cancer diagnosis” (Cell Reports Medicine, 2023).

How the values were obtained:
[1] = test system: PIS patient tumor tissue (intracranial sarcoma); experiment: Drug screening of uncultured patient tumor tissue PIS on OBSCs; assay type: cell-based, human; conditions: Homo sapiens, PIS on OBSCs
Procedure, shortened: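 Uncultured patient tumour tissue, transduced with mCherry-FLuc lentivirus, engrafted on organotypic brain slice cultures (OBSCs); six drug concentrations or X-ray dosing given one day after seeding, n = 4 foci per concentration. Bioluminescence with luciferin read three days post-treatment, normalised to day one and untreated controls; drug sensitivity score combines weighted therapeutic-window parameters versus OBSC toxicity (−100 to 100).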

[2] = test system: GBM8 (high-passage patient-derived GBM line); experiment: Drug screening of GBM8 tumor foci on OBSCs; assay type: cell-based, human
Procedure, shortened: (§1)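 Scores integrate therapeutic windows between tumor kill and slice toxicity (at DSS thresholds, EC50 slopes, curve areas) plus tumor-behavior parameters, giving −100 to +100. Tumor viability came from bioluminescence three days after drug or radiation, normalized to day-one fluorescence.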

[3] = test system: MMG-II patient tumor tissue (WHO grade II meningioma, multiple tumors); experiment: Drug screening of uncultured patient tumor tissue MMG-II on OBSCs; assay type: cell-based; conditions: Homo sapiens, dose required to kill 90% of the tumor
Experimental: (§2) Tumor cells were seeded onto OBSCs 2h after slicing as described above. One day after tumor seeding, six concentrations of each drug were diluted in the media underneath each culture insert, or XRad was applied using an X-Rad 320 Precision X-ray machine (n = 4 tumor foci per concentration; n ≥ 24 tumor foci per drug per cell line). Three days after treatment, the bioluminescence of live tumor cells was measured using an AMI optical imager (Spectral Instruments) and dose-response curves were generated. Tumor survival was normalized to day one tumor fluorescence and compared to an untreated control group.
To engraft onto OBSCs, the cryopreserved/thawed or fresh brain tumor tissue was filtered through a 100 μm cell strainer. Each 50 mg of tissue was transfected with 1mL mcherry-FLuc Lentivirus at 1.5e7 vg/ml with 1μL polybrene for 4h at 37°C. After incubation, the brain tumor tissue was washed with PBS three times to remove the residual virus and reconstituted in PBS with a final volume of 150 μL. […] The viability of the patient tissue was measured by an AMI optical imaging system with the addition of 1.5 mg/mL luciferin underneath the culture insert. […]
For DSS parameters 1–6, therapeutic windows were calculated by comparing OBSC toxicity and tumor response at the doses where tumor kill passed through the DSS parameter (Table S1 and S3). For DSS parameter 7, the therapeutic window was calculated by comparing the slopes through the tumor EC50 and the OBSC tox EC50. For DSS parameter 8, the therapeutic window was calculated by comparing the areas under tumor kill and OBSC tox curves. Normalized therapeutic window ratios for DSS parameters 1–8 within each drug-tumor-OBSC interaction were calculated in the following manner: within each window, values ranged from +1 to −1, where values approaching +1 signify increasing tumor kill relative to normal tissue toxicity, and values approaching −1 indicate agents where tumors remained highly viable while toxicity to the normal OBSC tissue was elevated. […]

[4] = test system: PDIPG (low-passage pediatric patient-derived line); experiment: Drug screening of PDIPG tumor foci on OBSCs; assay type: cell-based, human
Procedure, shortened: as §1

[5] = test system: PGBM patient tumor tissue (pediatric GBM); experiment: Drug screening of uncultured patient tumor tissue PGBM on OBSCs; assay type: cell-based, human
Experimental: as §2
To engraft onto OBSCs, the cryopreserved/thawed or fresh brain tumor tissue was filtered through a 100 μm cell strainer. Each 50 mg of tissue was transfected with 1mL mcherry-FLuc Lentivirus at 1.5e7 vg/ml with 1μL polybrene for 4h at 37°C. After incubation, the brain tumor tissue was washed with PBS three times to remove the residual virus and reconstituted in PBS with a final volume of 150 μL. Then the tissue solution was engrafted atop OBSCs at ∼0.5 mg tissue in 3 μL of PBS on each hemisphere of the slice. The OBSC engrafted with patient tumor tissue was incubated at 37°C with 5% CO2 and 95% humidity. The BSM was changed after 24h and subsequently every 3 days. Tumor treatment studies were executed as described above for tumor lines. The viability of the patient tissue was measured by an AMI optical imaging system with the addition of 1.5 mg/mL luciferin underneath the culture insert.
Several weighted parameters were factored into an overall drug sensitivity score.
For DSS parameters 1–6, therapeutic windows were calculated by comparing OBSC toxicity and tumor response at the doses where tumor kill passed through the DSS parameter (Table S1 and S3). For DSS parameter 7, the therapeutic window was calculated by comparing the slopes through the tumor EC50 and the OBSC tox EC50. For DSS parameter 8, the therapeutic window was calculated by comparing the areas under tumor kill and OBSC tox curves. Normalized therapeutic window ratios for DSS parameters 1–8 within each drug-tumor-OBSC interaction were calculated in the following manner: within each window, values ranged from +1 to −1, where values approaching +1 signify increasing tumor kill relative to normal tissue toxicity, and values approaching −1 indicate agents where tumors remained highly viable while toxicity to the normal OBSC tissue was elevated. DSS parameters 9–11 were determined based on the behavior of the tumor in response to the drug, as defined above.
All individually weighed parameters were added together to generate the DSS. Overall DSS from 0 to 100 signify increasing efficacy in tumor kill relative to OBSC toxicity, while scores from 0 to −100 describe scenarios in which tumors thrive more effectively than OBSCs for a given treatment. Dose-response values were calculated via linear interpolation of raw data, not from best-fit curve equations.

[6] = test system: U373WT (wild-type established GBM line); experiment: Drug screening of U373WT tumor foci on OBSCs; assay type: cell-based, human; conditions: U373 WT on OBSCs
Procedure, shortened: as §1

[7] = test system: U373KO (RAD18 knockout of U373WT via CRISPR); experiment: Drug screening of U373KO tumor foci on OBSCs; assay type: cell-based, human; conditions: U373 KO on OBSCs
Procedure, shortened: as §1

[8] = test system: LN229 (established GBM line); experiment: Drug screening of LN229 tumor foci on OBSCs; assay type: cell-based, human
Procedure, shortened: as §1

[9] = test system: MS21 (low-passage patient-derived GBM line); experiment: Drug screening of MS21 tumor foci on OBSCs; assay type: cell-based, human
Procedure, shortened: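 Drug effects on tumor foci grown on brain slices are quantified by bioluminescence three days after treatment, relative to untreated foci and day-one fluorescence. Efficacy versus slice toxicity is combined into a weighted drug sensitivity score.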

[10] = test system: MB231Br (breast cancer metastasis to brain); experiment: Drug screening of MB231Br tumor foci on OBSCs; assay type: cell-based, human
[11] = Homo sapiens, U373 MG, dose required to kill 50% of the tumor
[12] = Homo sapiens, U373 MG, dose required to kill 90% of the tumor
[13] = Homo sapiens, U373 MG, dosed day 1, survival via bioluminescence day 4, linear interpolation
[14] = area under the dose-response curve, trapezoidal rule
[15] = dose required to kill 10% of the tumor
[16] = dose required to kill 25% of the tumor

CC(=O)Nc1cccc(-n2c(=O)n(C3CC3)c(=O)c3c(Nc4ccc(I)cc4F)n(C)c(=O)c(C)c32)c1 [Trametinib]
EC50 ([1]; dose required to kill 50% of the tumor): > 100 µM | EC90 ([1]; dose required to kill 90% of the tumor): > 10 µM | Killing at highest dose ([2]; GBM8 on OBSCs): 9.80E-01 fraction of tumor population killed | AUC ([2]; GBM8 on OBSCs, area under the dose-response curve, trapezoidal rule): 4.78E+00 | EC10 ([2]; GBM8 on OBSCs, dose required to kill 10% of the tumor): 0.0313 µM | EC25 ([2]; GBM8 on OBSCs, dose required to kill 25% of the tumor): 0.0781 µM | EC75 ([2]; GBM8 on OBSCs, dose required to kill 75% of the tumor): 0.779 µM | Slope ([2]; GBM8 on OBSCs, slope through the EC50): -6.33E-01 | EC50 ([2]; Homo sapiens): 0.384 µM | EC90 ([2]; Homo sapiens): 1.67 µM | IC50 ([2]; Homo sapiens): 0.38 µM | EC90 [3]: > 10 µM | EC50 ([4]; Homo sapiens): > 10 µM | EC90 ([4]; Homo sapiens): > 10 µM | IC50 ([4]; Homo sapiens): > 10 µM | Killing at highest dose ([4]; PDIPG on OBSCs): 1.70E-01 fraction of tumor population killed | AUC ([4]; PDIPG on OBSCs, area under the dose-response curve, trapezoidal rule): 8.73E+01 | EC10 ([4]; PDIPG on OBSCs, dose required to kill 10% of the tumor): 30 µM | Slope ([4]; PDIPG on OBSCs, slope through the EC50): -1.00E-03 | EC50 ([5]; Homo sapiens, PGBM on OBSCs, dose required to kill 50% of the tumor): > 100 µM | EC90 ([5]; Homo sapiens, PGBM on OBSCs, dose required to kill 90% of the tumor): > 10 µM | Killing at highest dose ([5]; PGBM patient tissue on OBSCs, 72 h): about one-third | DSS (drug sensitivity score) ([5]; PGBM patient tissue, scale -100 to +100): 16 | EC50 [6, 11]: > 10 µM | EC90 [6, 12]: > 10 µM | IC50 [6, 13]: > 10 µM | Killing at highest dose [6]: 4.80E-01 fraction of tumor population killed | AUC [6, 14]: 5.40E+01 | EC10 [6, 15]: 0.625 µM | EC25 [6, 16]: 2.16 µM | Slope ([6]; slope through the EC50): -2.50E-04 | EC50 [7, 11]: > 10 µM | EC90 [7, 12]: > 10 µM | IC50 [7, 13]: > 10 µM | Killing at highest dose [7]: 3.10E-01 fraction of tumor population killed | AUC [7, 14]: 8.91E+01 | EC10 [7, 15]: 45.8 µM | EC25 [7, 16]: 84.5 µM | Slope ([7]; slope through the EC50): -3.88E-03 | Killing at highest dose [8]: 5.60E-01 fraction of tumor population killed | EC50 ([8]; Homo sapiens, LN-229, dose required to kill 50% of the tumor): 18.6 µM | EC90 ([8]; Homo sapiens, LN-229, dose required to kill 90% of the tumor): > 10 µM | IC50 ([8]; Homo sapiens, LN-229, dosed day 1, survival via bioluminescence day 4, linear interpolation): 19 µM | AUC [8, 14]: 4.96E+01 | EC10 [8, 15]: 0.668 µM | EC25 [8, 16]: 3.46 µM | Slope ([8]; slope through the EC50): -1.47E-02 | EC50 ([9]; Homo sapiens): > 10 µM | EC90 ([9]; Homo sapiens): > 10 µM | IC50 ([9]; Homo sapiens): > 10 µM | Killing at highest dose ([9]; MS21 on OBSCs): -5.00E-02 fraction of tumor population killed | AUC ([9]; MS21 on OBSCs, area under the dose-response curve, trapezoidal rule): 1.26E+02 | EC50 ([10]; Homo sapiens, MB231BR on OBSCs, dose required to kill 50% of the tumor): 0.784 µM | EC90 ([10]; Homo sapiens, MB231BR on OBSCs, dose required to kill 90% of the tumor): > 10 µM | IC50 ([10]; Homo sapiens, MB231Br on OBSCs, dosed day 1, survival via bioluminescence day 4, linear interpolation): 0.78 µM | Killing at highest dose ([10]; MB231BR on OBSCs): 7.00E-01 fraction of tumor population killed | AUC ([10]; MB231BR on OBSCs, area under the dose-response curve, trapezoidal rule): 3.32E+01 | Slope ([10]; MB231BR on OBSCs, slope through the EC50): -2.78E-01
